Data: US20120052017A1, “METHOD FOR PRODUCING CONTRAST AGENT FOR OPTICAL IMAGING” (CANON KABUSHIKI KAISHA, priority 2010, published 2012)

Legend:
[1] = Solubility of ICG in dichloromethane when phospholipid was added; type: physicochemical; conditions: phospholipid not added; inferred by comparison with ICG-methanol solution
Description: 2 molar equivalents of a phospholipid was added to 5.5 mg of ICG. As the phospholipid, DSPC or DOPE was used. Each of these ICG-phospholipid mixtures was dissolved in 2 mL of dichloromethane. Controls were brepared by dissolving in 10 G in methanol or dichloromethane. All these 10 G solutions were filtered with a filter having a pore size of 0.2 μm and then diluted 500-fold with dichloromethane.

[2] = Composition ratio of DSPC and ICG: ICG dissolved in chloroform; type: physicochemical; conditions: 47.2 mM DSPC in the ICG chloroform solution
Description: 0.5, 1 or 2 Molar Equivalents of DSPC was Added to 55 mg of ICG.
3 mL of chloroform was added to each of these ICG-DSPC mixtures. The mixtures were heated at 40° C. for two minutes, and ultrasonic irradiation was performed for one minute. […] These suspensions were filtered with a filter having a pore size of 0.45 μm to remove insoluble matters. Each of the filtrates was diluted 3000-fold with methanol.

CC1(C)C(/C=C/C=C/C=C/C=C2/N(CCCCS(=O)(=O)[O-])c3ccc4ccccc4c3C2(C)C)=[N+](CCCCS(=O)(=O)[O-])c2ccc3ccccc3c21.[Na+] [ICG, indocyanine green]
ICG dissolved in dichloromethane [1]: approximately 0.6 mM
concentration of ICG dissolved [2]: 15700 µM
